Measurements reported in ChEMBL document CHEMBL3885861, “Open TG-GATES”.

Species: Rattus norvegicus
Assay: Open TG-GATES - Regimen: Single
Assay type: toxicity, organism-based, Sprague-Dawley
Parameters: regimen Single, gender Male, age 6 weeks
Conditions: in vivo, po, 3 mg/kg, route gavage, dose level Low; for APTT / Bas / Eos / Fbg / Hb / Ht / Lym / MCH / MCHC / MCV / Mono / Neu / PT / Plat / RBC / Ret / WBC: tissue Blood; for KIDNEY_L / KIDNEY_R / KIDNEY_TOTAL: tissue Kidney; for LIVER: tissue Liver; for A/G / ALP / ALT / AST / BUN / CRE / Ca / Cl / DBIL / GLC / IP / K / LDH / Na / PL / RALB / TBIL / TC / TG / TP / gamma-GTP: tissue Plasma

Structure (SMILES): CN(C)CCC(c1ccc(Cl)cc1)c1ccccn1 (configuration not stated) [CHLORPHENIRAMINE]
- TERMINAL_BW (3 h): 195.7 g
- APTT (3 h): 18 s
- Bas (3 h): 0%
- Eos (3 h): 0.6%
- Fbg (3 h): 281.4 mg/dL
- Hb (3 h): 13.4 g/dL
- Ht (3 h): 41.7%
- Lym (3 h): 72.6%
- MCH (3 h): 20.9 pg
- MCHC (3 h): 32.2%
- MCV (3 h): 64.9 fL
- Mono (3 h): 3.4%
- Neu (3 h): 22.4%
- PT (3 h): 15 s
- Plat (3 h): 124.5 x10_4/uL
- RBC (3 h): 642.6 x10_4/ul
- Ret (3 h): 8.9%
- WBC (3 h): 84.7 x10_2/uL
- KIDNEY_L (3 h): 0.9 g
- KIDNEY_R (3 h): 0.8 g
- KIDNEY_TOTAL (3 h): 1.7 g
- LIVER (3 h): 8.5 g
- A/G (3 h): 0.9
- ALP (3 h): 1618.2 IU/L
- ALT (3 h): 47 IU/L
- AST (3 h): 76 IU/L
- BUN (3 h): 9.2 mg/dL
- CRE (3 h): 0.2 mg/dL
- Ca (3 h): 10.9 mg/dL
- Cl (3 h): 106 meq/L
- DBIL (3 h): 0.01 mg/dL
- GLC (3 h): 179.8 mg/dL
- IP (3 h): 10.4 mg/dL
- K (3 h): 4.1 meq/L
- LDH (3 h): 195 IU/L
- Na (3 h): 143.6 meq/L
- PL (3 h): 140.2 mg/dL
- RALB (3 h): 2.5 g/dL
- TBIL (3 h): 0.048 mg/dL
- TC (3 h): 77.8 mg/dL
- TG (3 h): 53.4 mg/dL
- TP (3 h): 5.5 g/dL
- gamma-GTP (3 h): 2 IU/L
- TERMINAL_BW (6 h): 194.4 g
- APTT (6 h): 20 s
- Bas (6 h): 0.4%
- Eos (6 h): 1%
- Fbg (6 h): 296.2 mg/dL
- Hb (6 h): 13.2 g/dL
- Ht (6 h): 41.3%
- Lym (6 h): 75.8%
- MCH (6 h): 20.8 pg
- MCHC (6 h): 31.9%
- MCV (6 h): 65.1 fL
- Mono (6 h): 3.4%
- Neu (6 h): 19.2%
- PT (6 h): 14.9 s
- Plat (6 h): 119.3 x10_4/uL
- RBC (6 h): 633.8 x10_4/ul
- Ret (6 h): 9.5%
- WBC (6 h): 83.2 x10_2/uL
- KIDNEY_L (6 h): 0.9 g
- KIDNEY_R (6 h): 0.9 g
- KIDNEY_TOTAL (6 h): 1.8 g
- LIVER (6 h): 8.1 g
- A/G (6 h): 0.9
- ALP (6 h): 1343.4 IU/L
- ALT (6 h): 41.4 IU/L
- AST (6 h): 71.2 IU/L
- BUN (6 h): 7.8 mg/dL
- CRE (6 h): 0.2 mg/dL
- Ca (6 h): 10.5 mg/dL
- Cl (6 h): 108.4 meq/L
- DBIL (6 h): 0.004 mg/dL
- GLC (6 h): 176 mg/dL
- IP (6 h): 10.4 mg/dL
- K (6 h): 4.1 meq/L
- LDH (6 h): 200 IU/L
- Na (6 h): 144.4 meq/L
- PL (6 h): 150.2 mg/dL
- RALB (6 h): 2.5 g/dL
- TBIL (6 h): 0.052 mg/dL
- TC (6 h): 89.6 mg/dL
- TG (6 h): 42.6 mg/dL
- TP (6 h): 5.4 g/dL
- gamma-GTP (6 h): 1.4 IU/L
- TERMINAL_BW (9 h): 194.2 g
- APTT (9 h): 17.4 s
- Bas (9 h): 0%
- Eos (9 h): 1%
- Fbg (9 h): 288.2 mg/dL
- Hb (9 h): 12.8 g/dL
- Ht (9 h): 39.6%
- Lym (9 h): 77.8%
- MCH (9 h): 20.9 pg
- MCHC (9 h): 32.4%
- MCV (9 h): 64.7 fL
- Mono (9 h): 2.8%
- Neu (9 h): 18%
- PT (9 h): 14.8 s
- Plat (9 h): 119.5 x10_4/uL
- RBC (9 h): 612.4 x10_4/ul
- Ret (9 h): 9.2%
- WBC (9 h): 71.4 x10_2/uL
- KIDNEY_L (9 h): 0.9 g
- KIDNEY_R (9 h): 0.9 g
- KIDNEY_TOTAL (9 h): 1.8 g
- LIVER (9 h): 7.7 g
- A/G (9 h): 0.9
- ALP (9 h): 1240.8 IU/L
- ALT (9 h): 40.6 IU/L
- AST (9 h): 71 IU/L
- BUN (9 h): 8.2 mg/dL
- CRE (9 h): 0.1 mg/dL
- Ca (9 h): 10.3 mg/dL
- Cl (9 h): 105.8 meq/L
- DBIL (9 h): 0.006 mg/dL
- GLC (9 h): 165.2 mg/dL
- IP (9 h): 10.2 mg/dL
- K (9 h): 3.9 meq/L
- LDH (9 h): 139 IU/L
- Na (9 h): 142.8 meq/L
- PL (9 h): 143 mg/dL
- RALB (9 h): 2.5 g/dL
- TBIL (9 h): 0.046 mg/dL
- TC (9 h): 85.4 mg/dL
- TG (9 h): 37.2 mg/dL
- TP (9 h): 5.3 g/dL
- gamma-GTP (9 h): 1 IU/L
- TERMINAL_BW (24 h): 214.2 g
- APTT (24 h): 15.8 s
- Bas (24 h): 0%
- Eos (24 h): 1%
- Fbg (24 h): 291.4 mg/dL
- Hb (24 h): 12.9 g/dL
- Ht (24 h): 40.3%
- Lym (24 h): 78.2%
- MCH (24 h): 20.4 pg
- MCHC (24 h): 32.1%
- MCV (24 h): 63.5 fL
- Mono (24 h): 3%
- Neu (24 h): 16.4%
- PT (24 h): 14.6 s
- Plat (24 h): 123.3 x10_4/uL
- RBC (24 h): 634.4 x10_4/ul
- Ret (24 h): 7.9%
- WBC (24 h): 88.7 x10_2/uL
- KIDNEY_L (24 h): 0.9 g
- KIDNEY_R (24 h): 0.9 g
- KIDNEY_TOTAL (24 h): 1.8 g
- LIVER (24 h): 9.9 g
- A/G (24 h): 0.9
- ALP (24 h): 1572.2 IU/L
- ALT (24 h): 47.4 IU/L
- AST (24 h): 72.6 IU/L
- BUN (24 h): 14.4 mg/dL
- CRE (24 h): 0.2 mg/dL
- Ca (24 h): 11.2 mg/dL
- Cl (24 h): 105.6 meq/L
- DBIL (24 h): 0.016 mg/dL
- GLC (24 h): 188.6 mg/dL
- IP (24 h): 8.9 mg/dL
- K (24 h): 4.5 meq/L
- LDH (24 h): 131.6 IU/L
- Na (24 h): 142.8 meq/L
- PL (24 h): 150.4 mg/dL
- RALB (24 h): 2.6 g/dL
- TBIL (24 h): 0.05 mg/dL
- TC (24 h): 81.6 mg/dL
- TG (24 h): 80.8 mg/dL
- TP (24 h): 5.7 g/dL
- gamma-GTP (24 h): 1 IU/L
